Reference: US20040258620A1, “(Ethylene)-( propylene)-triaminepentaacetic acid derivatives, process for their production, and their use for the production of pharmaceutical agents” (priority 2001, published 2004)
Where two headings read alike, the source gives them in different places.

What was measured:
[1] = Protonation constants of the ligands by pH-potentiometry; type: physicochemical; conditions: protonation constant of the ligand; I=0.1M TMACI, t=25° C.
Source text: (§1) Protonation constants of the two ligands, DPTPA and EPTPA-Bz-NO2, and stability constants of their complexes formed with Gd(III) and some endogenously available cations have been determined by pH-potentiometry. The selectivity of the ligand for Gd(III) over Zn(II) (log(KGdL/KZnL)) is especially important as it directly relates to the safety of the Gd(III) contrast agent.

[2] = Stability constants of the complexes formed with Gd(III) by pH-potentiometry; type: physicochemical; conditions: I=0.1M TMACI, t=25° C.; for logKGdL: stability constant
Source text: as §1

[3] = Stability constants of the complexes formed with Zn(II) by pH-potentiometry; type: physicochemical; conditions: I=0.1M TMACI, t=25° C.; for logKZnL: stability constant
Source text: as §1

[4] = Stability constants of the Ca complexes by pH-potentiometry; type: physicochemical; conditions: for logKCaL: stability constant
Source text: as §1

[5] = Simultaneous analysis of 17O NMR, EPR and NMRD data; conditions: for ΔH^‡ / ΔS^‡: water exchange; for kex^298: water exchange rate
Source text: The ^17O NMR, NMRD and EPR experimental data (points) and the fitted curves (lines) as obtained in a simultaneous analysis, according to the method of Powell et al., J. Am. Chem. Soc.

[6] = IUPAC Stability constants. Academic Software and K. J. Powell, 1999; cited from earlier work
[7] = IUPAC Stability constants. Academic Software and K. J. Powell, 1999; cited from earlier work; remark: listed apart in the source
[8] = IUPAC Stability constants. Academic Software and K. J. Powell, 1999; cited from earlier work; remark: listed apart in the source

| SMILES | pKa1 [1] | pKa2 [1] | pKa3 [1] | pKa4 [1] | pKa5 [1] | logKGdH2L [2] | logKGdHL [2] | logKGdL [2] | logKZnH2L [3] | logKZnHL [3] | logKZnL [3] | logKCaHL [4] | logKCaL [4] | A/ħ ([5]; Gd(III) complex of the ligand) | Δ^2 ([5]; Gd(III) complex of the ligand) | τr ([5]; Gd(III) complex of the ligand) [ps] | τy ([5]; Gd(III) complex of the ligand) [ps] | ΔH^‡ ([5]; Gd(III) complex of the ligand) [kcal/mol] | ΔS^‡ ([5]; Gd(III) complex of the ligand) [J mol^−1K^−1] | kex^298 ([5]; Gd(III) complex of the ligand) | other results |
| --- | --- | --- | --- | --- | --- | --- | --- | --- | --- | --- | --- | --- | --- | --- | --- | --- | --- | --- | --- | --- | --- |
| O=C(O)CN(CCCN(CC(=O)O)CC(=O)O)CCCN(CC(=O)O)CC(=O)O [DPTPA] | 10.91 | 9.29 | 7.07 | 2.76 | 2.19 | 5.43 | 6.30 | 13.00 | 3.17 | 8.06 | 15.60 | 8.63 | 6.01 | – | – | – | – | – | – | – | logKCaH2L [4]: 6.01 |
| O=C(O)CN(CCN(CC(=O)O)CC(=O)O)CCN(CC(=O)O)CC(=O)O [DTPA, diethylenetriamine-pentaacetic acid, reference compound] | – | – | – | – | – | – | – | – | – | – | – | – | – | −3.8 ± 0.2 10^6 rad s^−1 | 0.46 ± 0.02 10^20 s^−1 | 58 ± 11 | 25 ± 1 | 12.3 ± 0.335 | 53.0 ± 4.7 | 3.3 ± 0.2 10^6 s^−1 | Ev ([5]; Gd(III) complex of the ligand): 0.382 ± 0.43 kcal/mol; Er ([5]; not told): 4.13 ± 0.19 kcal/mol; logKGdHL [6]: 1.80; logKGdL [6]: 22.50; logKZnHL [7]: 3.0; logKZnL [7]: 18.3; logKCaHL [8]: 6.42; logKCaL [8]: 10.89 |
| O=C(O)CN(CCCN(CC(=O)O)CC(Cc1ccc([N+](=O)[O-])cc1)N(CC(=O)O)CC(=O)O)CC(=O)O (centres unmarked) [EPTPA-bz-NO2] | 10.86 | 8.94 | 4.70 | 3.25 | 2.51 | 2.40 | 3.35 | 19.31 | 2.53 | 8.99 | 16.01 | 7.04 | 10.02 | −3.5 ± 0.2 10^6 rad s^−1 | 0.37 ± 0.03 10^20 s^−1 | 84.6 ± 6 | 20 ± 1 | 5.66 ± 0.43 | −9.2 ± 4.0 | 146 ± 23 10^6 s^−1 | Er ([5]; Gd(III) complex of the ligand): 4.76 ± 0.406 kcal/mol |
